“And” between values parts separate entries of the source, which are not always exact repeats. Equal entries are not always repeated.
How the values were obtained:
Conditions in all cases: incubation time: 72 h
[1] = tested on: DU-4475; experiment: normalised viability (% of control), CellTiter-Blue; higher = more viable cells (about 100 = DMSO control)
Procedure: (§1)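 DSRT, CellTiter-Blue viability, 72 h incubation. Signal is normalised to DMSO and benzethonium chloride controls. Value is the normalised response at dose 8.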

[2] = tested on: CAL-148; experiment: as above
Procedure: as §1

[3] = tested on: MDA-MB-453; experiment: as above
Procedure: as §1

[4] = tested on: CAL-51; experiment: as above
Procedure: as §1

[5] = tested on: CAL-85-1; experiment: as above
Procedure: as §1

[6] = tested on: HDQ-P1; experiment: as above
Procedure: as §1

[7] = tested on: DU-4475; experiment: drug sensitivity score (DSS), CellTox Green (DSS (AUC-based score)); higher = stronger drug effect (viability inhibition or cytotoxicity); extreme values may be limits of the assay
In short: (§2)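 In 384-well plates, compound was laid out at 5 concentrations in 10-fold steps over a 10,000-fold range specific to each compound, and breast cancer cell lines were seeded on top in 20 µl suspension for a 72 h incubation. CellTox Green fluorescence and then CellTiter-Glo luminescence were read, and each plate was normalised to 0.1 % DMSO and a positive kill control. The drug sensitivity score was calculated from the area under the fitted dose-response curve.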

[8] = tested on: BT-549; experiment: as above
In short: as §2

[9] = tested on: MCF-10A; experiment: as above
In short: as §2

[10] = tested on: MFM-223; experiment: as above
In short: as §2

[11] = tested on: MDA-MB-468; experiment: as above
In short: as §2

[12] = tested on: MDA-MB-436; experiment: as above
In short: as §2

[13] = tested on: CAL-148; experiment: as above
In short: as §2

[14] = tested on: CAL-120; experiment: as above
In short: as §2

[15] = tested on: MDA-MB-453; experiment: as above
In short: as §2

[16] = tested on: CAL-51; experiment: as above
In short: as §2

[17] = tested on: HCC1937; experiment: as above
In short: as §2

[18] = tested on: MDA-MB-231; experiment: as above
In short: as §2

[19] = tested on: Hs578T; experiment: as above
In short: as §2

[20] = tested on: CAL-85-1; experiment: as above
In short: as §2

[21] = tested on: HDQ-P1; experiment: as above
In short: as §2

[22] = tested on: DU-4475; experiment: normalised viability (% of control), CellTiter-Blue; higher = more viable cells (about 100 = DMSO control); remark: listed apart in the source
Procedure: (§3)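 DSRT, CellTiter-Blue viability, 72 h incubation. Signal is normalised to DMSO and benzethonium chloride controls. Value is the normalised response at dose 9.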

[23] = tested on: CAL-148; experiment: as above; remark: listed apart in the source
Procedure: as §3

[24] = tested on: MDA-MB-453; experiment: as above; remark: listed apart in the source
Procedure: as §3

[25] = tested on: CAL-51; experiment: as above; remark: listed apart in the source
Procedure: as §3

[26] = tested on: CAL-85-1; experiment: as above; remark: listed apart in the source
Procedure: as §3

[27] = tested on: HDQ-P1; experiment: as above; remark: listed apart in the source
Procedure: as §3

Row | SMILES | normalised viability ([1]; 300 nM) [%] | normalised viability ([2]; 300 nM) [%] | normalised viability ([3]; 300 nM) [%] | normalised viability ([4]; 300 nM) [%] | normalised viability ([5]; 300 nM) [%] | normalised viability ([6]; 300 nM) [%] | drug sensitivity score [7] | drug sensitivity score [8] | drug sensitivity score [9] | drug sensitivity score [10] | drug sensitivity score [11] | drug sensitivity score [12] | drug sensitivity score [13] | drug sensitivity score [14] | drug sensitivity score [15] | drug sensitivity score [16] | drug sensitivity score [17] | drug sensitivity score [18] | drug sensitivity score [19] | drug sensitivity score [20] | drug sensitivity score [21] | normalised viability ([22]; 1000 nM) [%] | normalised viability ([23]; 1000 nM) [%] | normalised viability ([24]; 1000 nM) [%] | normalised viability ([25]; 1000 nM) [%] | normalised viability ([26]; 1000 nM) [%] | normalised viability ([27]; 1000 nM) [%] | normalised viability ([1]; 3000 nM) | normalised viability ([2]; 3000 nM) | normalised viability ([3]; 3000 nM) | normalised viability ([4]; 3000 nM) | normalised viability ([5]; 3000 nM) | normalised viability ([6]; 3000 nM) | normalised viability ([22]; 10000 nM) | normalised viability ([23]; 10000 nM) [%] | normalised viability ([24]; 10000 nM) [%] | normalised viability ([25]; 10000 nM) | normalised viability ([26]; 10000 nM) [%] | normalised viability ([27]; 10000 nM)
1 | CC[C@@H]1C(=O)N(C)c2cnc(Nc3ccc(C(=O)NC4CCN(C)CC4)cc3OC)nc2N1C1CCCC1 [BI 2536] | 32.9 | 41.5 | 39.5 | 10.6 | 61.8 | 65.2 | 0 | 0 | 10.3 | 6.01 | 0 | 0 | 0 | 1.97 | 0 | 16.7 | 0 | 9.92 | 4.87 | 10.3 | 0 | 44.9 | 44.3 | 25.2 | 8.2 | 61.6 | 86.2 | – | – | – | – | – | – | – | – | – | – | – | –
2 | C=CC(=O)Nc1cc2c(Nc3ccc(F)c(Cl)c3)ncnc2cc1OCCCN1CCOCC1 [Canertinib] | – | – | – | – | – | – | 0 | 0.986 | 8.86 | 2.12 | 5.52 | 0 | 0 | 2.34 | 0 | 5.83 | 0 | 3.46 | 6.15 | 8.99 | 3.34 | – | – | – | – | – | – | 103% | 60% | 28.2% | 79.9% | 34.3% | 27.5% | 6.91% | 29.8 | 10.3 | 4.95% | 2.97 | 1.8%
3 | O=C(O)C1(C(=O)O)CCC1.[NH2-].[NH2-].[Pt+2] [Carboplatin] | – | – | – | – | – | – | 0 | 1.73 | 0 | 0 | 0 | 0 | 0 | 0 | 0 | 0 | 0 | 0 | 0 | 0 | 0 | – | – | – | – | – | – | 107% | 86% | 105% | 115% | 87.7% | 86% | 63.2% | 44.6 | 25.9 | 42.3% | 56.2 | 122%
4 | Nc1ncn([C@H]2C[C@H](O)[C@@H](CO)O2)c(=O)n1 [Decitabine] | – | – | – | – | – | – | 0 | 0 | 0 | 0 | 0.872 | 0 | 0 | 0 | 0.571 | 7.63 | 0 | 0 | 0 | 2.72 | 0 | – | – | – | – | – | – | 69.8% and 78.9% | 81.2% and 73.7% | 87% and 93.1% | 98.4% and 79.8% | 83% and 88.5% | 88.6% and 93.3% | 53.4% and 64.7% | – | – | 66.7% and 70.4% | – | 97.9% and 90.5%
